The results in this text go back to ChEMBL document CHEMBL1130368, “Potent carboxylate inhibitors of stromelysin containing P2 piperazic acids and P1 biaryl moeities” (Bioorg Med Chem Lett, 1997).

Broadly, the Ki is the dissociation constant of the complex between target and ligand, obtained from inhibition or displacement. Lower therefore signals tighter binding. The IC50 is the concentration needed to halve the response being measured. Higher therefore signals weaker potency in that assay.

Stromelysin-1, sequence (P08254 whole entry): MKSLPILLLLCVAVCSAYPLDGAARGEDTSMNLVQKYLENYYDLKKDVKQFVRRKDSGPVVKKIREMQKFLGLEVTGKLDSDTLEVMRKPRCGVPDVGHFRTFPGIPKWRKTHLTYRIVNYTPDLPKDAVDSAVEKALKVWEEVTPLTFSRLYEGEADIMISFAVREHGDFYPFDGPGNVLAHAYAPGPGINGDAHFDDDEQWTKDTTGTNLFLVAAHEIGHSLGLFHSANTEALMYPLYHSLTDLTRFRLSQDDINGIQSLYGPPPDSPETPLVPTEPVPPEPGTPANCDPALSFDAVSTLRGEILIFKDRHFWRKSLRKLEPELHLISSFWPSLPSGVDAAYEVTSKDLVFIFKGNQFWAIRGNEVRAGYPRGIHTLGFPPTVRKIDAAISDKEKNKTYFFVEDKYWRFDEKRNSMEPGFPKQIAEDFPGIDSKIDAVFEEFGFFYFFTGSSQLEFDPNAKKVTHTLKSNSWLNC

The assay concerns the target Stromelysin-1 (Homo sapiens, UniProt P08254). Nature of the assay: Inhibition of Matrix metalloprotease-3 by MCA peptide assay.
On to `CCCC[C@@H](C[C@@H](CCc1ccc(-c2ccccc2)cc1)C(=O)N[C@@H](Cc1ccc(OC)cc1)C(=O)NC)C(=O)O`, for which the Ki is 21 nM.

In turn, `CNC(=O)[C@@H]1CCCNN1C(=O)[C@H](CC(C)C)[C@H](C)C(=O)NO` registered an IC50 of 0.03 µM.

On to `CNC(=O)[C@@H]1CCCNN1C(=O)[C@H](CCOc1ccc(C(C)C)cc1)N[C@H](C)C(=O)O`, for which the IC50 was above 200 µM.

Consider `CNC(=O)[C@@H]1CCCNN1C(=O)[C@H](CCOc1ccc(-c2ccccc2)cc1)N[C@H](C)C(=O)O`, for which affinity was put at a Ki of 77 nM.

With `CCCCc1ccc(OCC[C@H](N[C@H](C)C(=O)O)C(=O)N2NCCC[C@H]2C(=O)NC)cc1`, affinity was put at a Ki of 550 nM.

Take `CCCC[C@@H](C[C@@H](CCc1ccc(-c2ccccc2)cc1)C(=O)N1NCCC[C@H]1C(=O)NC)C(=O)O`: the affinity, expressed as Ki, was 42 nM.

For `CNC(=O)[C@@H]1CCCNN1C(=O)[C@H](CCOc1ccc(Cc2ccccc2)cc1)N[C@H](C)C(=O)O`, the affinity corresponds to a Ki of 552 nM.

As to `CNC(=O)[C@H](Cc1ccc(OC)cc1)NC(=O)[C@H](CCc1ccccc1)C[C@H](C)C(=O)O`, the IC50 amounted to 55 µM.

`CNC(=O)[C@@H]1CCCNN1C(=O)[C@H](CCOc1ccc(CC2CCCC2)cc1)N[C@H](C)C(=O)O` gave a concentration for half-maximal inhibition (IC50) above 200 µM.

In turn, `CNC(=O)[C@H](Cc1ccc(OC)cc1)NC(=O)[C@H](CCc1ccc(-c2ccccc2)cc1)C[C@H](C)C(=O)O` yielded an IC50 of 0.081 µM.
